Assay results: patent publication US7544666B2, “NAP derivatives” (Industrial Technology Research Institute, priority 2005, dated 2009)
Where a SMILES comes first, the peptide text is derived from it. Bridges are numbered along the chain shown (N, C = ends).

What was measured:
Caco-2 cell = assay: Stability in the Caco-2 cell system; assay type: in vitro ADME, human; settings: 4-hour incubation in Caco-2 Transwell; relative to initial conc. = 100.00 (500 μM)
Experimental: (§1) The stability of the NAP derivatives prepared by EXAMPLE 1 was measured with the system of human colon cancer cell, Caco-2 cell. Caco-2 cells (1×10^5 cells) were first seeded into a polycarbonate film on the upper layer of a 12-well Transwell and incubated for 18 to 26 days at 37° C. The TEER of the Caco-2 cell monolayer was measured over 350 Ω×cm^2. The stability of the NAP derivatives in the Hanks' balanced salt solutions (HBSS) was measured by the concentration changes of NAP and the NAP derivatives incubated in the HBSS at 37° C. for 4 hours. The stability of the NAP derivatives in the Caco-2 cell system was measured by the procedure described below. NAP and the NAP derivatives in the HBSS were added into the upper layer of the Caco-2 cell-seeded Transwell. After 4-hour incubation, the concentration of NAP and the NAP derivatives in the upper and lower layers was measured and analyzed in comparison with the initial concentration (500 μM) by reverse HPLC at 210 nm.

[1] = Stability in Hanks' balanced salt solution (HBSS); assay type: physicochemical; settings: 37° C., relative to initial conc. in HBSS = 100.00
Experimental: as §1

Caco-2 cell monolayer = assay: Permeation to Caco-2 cell monolayer; assay type: in vitro ADME, human; set-up: unit not given here; settings: 4-hour incubation, initial concentration 500 μM in upper layer
Experimental: The permeation of NAP and the NAP derivatives was examined using the Caco-2 cell system. Caco-2 cells (1×10^5 cells) were seeded into the polycarbonate film on the upper layer of a 12-well Transwell and incubated at 37° C. for 18 to 26 days. The TEER of the Caco cell monolayer was measured over 350 Ω×cm^2. NAP and the NAP derivatives in the HBSS were added into the upper layer of the Caco-2 cell-seeded Transwell. After 4-hour incubation, the concentration of NAP and the NAP derivatives in the upper and lower layers was measured and analyzed in comparison with the initial concentration (500 μM) by reverse phase HPLC at 210 nm.

| Molecule | Conc. after 4-hour in Caco-2 cells (Caco-2 cell) | Conc. after 4-hour in HBSS [1] | Conc. at the lover layer (Caco-2 cell monolayer) |
| --- | --- | --- | --- |
| CCCC(=O)N[C@@H](CC(N)=O)C(=O)N[C@@H](C)C(=O)N1CCC[C@H]1C(=O)N[C@H](C(=O)N[C@@H](CO)C(=O)N[C@H](C(=O)N1CCC[C@H]1C(=O)N[C@@H](CCC(N)=O)C(=O)O)[C@@H](C)CC)C(C)C [BMEC-NAP0101, Butyryl-NAPVSIPQ-OH] | 56.02 | 97.76 |  |
| CC[C@H](C)[C@H](NC(=O)[C@H](CO)NC(=O)[C@@H](NC(=O)[C@@H]1CCCN1C(=O)[C@H](C)NC(=O)[C@H](CC(N)=O)NC(=O)OCC(C)C)C(C)C)C(=O)N1CCC[C@H]1C(=O)N[C@@H](CCC(N)=O)C(=O)O [BMEC-NAP0401, iBu-OCO-NAPVSIPQ-OH] | 52.63 | 100.02 | 0.24 |
| CC[C@H](C)[C@H](NC(=O)[C@H](CO)NC(=O)[C@@H](NC(=O)[C@@H]1CCCN1C(=O)[C@H](C)NC(=O)[C@H](CC(N)=O)NC(=O)c1cccc2ccccc12)C(C)C)C(=O)N1CCC[C@H]1C(=O)N[C@@H](CCC(N)=O)C(=O)O [BMEC-NAP0702, α-Naphthoyl-NAPVSIPQ-OH] | 61.61 | 96.55 | 0.27 |
| CCCCCCCCOC(=O)N[C@@H](CC(N)=O)C(=O)N[C@@H](C)C(=O)N1CCC[C@H]1C(=O)N[C@H](C(=O)N[C@@H](CO)C(=O)N[C@H](C(=O)N1CCC[C@H]1C(=O)N[C@@H](CCC(N)=O)C(N)=O)[C@@H](C)CC)C(C)C [BMEC-NAP0505, nOct-OCO-NAPVSIPQ-NH2] | 76.83 | 93.41 | 0.65 |
| CCCCOC(=O)N[C@@H](CC(N)=O)C(=O)N[C@@H](C)C(=O)N1CCC[C@H]1C(=O)N[C@H](C(=O)N[C@@H](CO)C(=O)N[C@H](C(=O)N1CCC[C@H]1C(=O)N[C@@H](CCC(N)=O)C(=O)O)[C@@H](C)CC)C(C)C [BMEC-NAP0403, nBu-OCO-NAPVSIPQ-OH] | 29.05 | 98.49 |  |
| CCCCC(CC)COC(=O)N[C@@H](CC(N)=O)C(=O)N[C@@H](C)C(=O)N1CCC[C@H]1C(=O)N[C@H](C(=O)N[C@@H](CO)C(=O)N[C@H](C(=O)N1CCC[C@H]1C(=O)N[C@@H](CCC(N)=O)C(N)=O)[C@@H](C)CC)C(C)C (stereo partly shown) [BMEC-NAP0502, iOct-OCO-NAPVSIPQ-NH2] | 82.37 |  | 1.39 |
| Adipyl-NAPVSIPQ-NH2 [BMEC-NAP0202] | 95.59 | 98.38 | 0.82 |
| CC[C@H](C)[C@H](NC(=O)[C@H](CO)NC(=O)[C@@H](NC(=O)[C@@H]1CCCN1C(=O)[C@H](C)NC(=O)[C@H](CC(N)=O)NC(=O)c1cccc2ccccc12)C(C)C)C(=O)N1CCC[C@H]1C(=O)N[C@@H](CCC(N)=O)C(N)=O [BMEC-NAP0802, α-Naphthoyl-NAPVSIPQ-NH2] | 88.68 | 100.00 | 0.34 |
| Adipyl-NAPVSIPQ-OH [BMEC-NAP0102] | 60.72 | 99.95 |  |
| H-NAPVSVPQ-OH [BMEC-NAP0605, H-NAPVSVPQ-OH] | 27.76 | 104.25 |  |
| H-QAPVSVPAQ-OH [BMEC-NAP0607, H-QAPVSVPAQ-OH] | 16.54 | 97.33 |  |
| CC[C@H](C)[C@@H]1NC(=O)[C@H](CO)NC(=O)[C@H](C(C)C)NC(=O)[C@@H]2CCCN2C(=O)[C@H](C)NC(=O)[C@H](CC(N)=O)NC(=O)[C@@H](N)CSSC[C@@H](C(=O)O)NC(=O)[C@H](CCC(N)=O)NC(=O)[C@@H]2CCCN2C1=O [BMEC-NAP0302] (H-CNAPVSIPQC-OH; disulfide 1-10; N-terminus and C-terminus assumed) | 81.33 |  | 1.28 |
| CCCCC(CC)COC(=O)N[C@@H](CC(N)=O)C(=O)N[C@@H](C)C(=O)N1CCC[C@H]1C(=O)N[C@H](C(=O)N[C@@H](CO)C(=O)N[C@H](C(=O)N1CCC[C@H]1C(=O)N[C@@H](CCC(N)=O)C(=O)O)[C@@H](C)CC)C(C)C (stereo partly shown) [BMEC-NAP0402, iOct-OCO-NAPVSIPQ-OH] | 18.92 |  | 2.02 |
| H-NAPISIPAN-OH [BMEC-NAP0608, H-NAPISIPAN-OH] | 30.58 | 110.89 |  |
| CC[C@H](C)[C@H](NC(=O)[C@H](CO)NC(=O)[C@@H](NC(=O)[C@@H]1CCCN1C(=O)[C@H](C)NC(=O)[C@H](CC(N)=O)NC(=O)OCC1c2ccccc2-c2ccccc21)C(C)C)C(=O)N1CCC[C@H]1C(=O)N[C@@H](CCC(N)=O)C(N)=O [BMEC-NAP0806, Fmoc-NAPVSIPQ-NH2] | 76.24 | 100.00 |  |
| H-QAPVSIPQ-OH [BMEC-NAP0602, H-QAPVSIPQ-OH] | 21.81 | 104.94 |  |
| CCCCCCC(=O)N[C@@H](CC(N)=O)C(=O)N[C@@H](C)C(=O)N1CCC[C@H]1C(=O)N[C@H](C(=O)N[C@@H](CO)C(=O)N[C@H](C(=O)N1CCC[C@H]1C(=O)N[C@@H](CCC(N)=O)C(=O)O)[C@@H](C)CC)C(C)C [BMEC-NAP0106, C6H13CO-NAPVSIPQ-OH] | 26.74 | 102.05 |  |

Second part, the molecule after the results:

| Conc. after 4-hour in Caco-2 cells (Caco-2 cell) | Conc. after 4-hour in HBSS [1] | Conc. at the lover layer (Caco-2 cell monolayer) | Molecule |
| --- | --- | --- | --- |
| 82.71 | 100.22 | 0.49 | CCCCCCOC(=O)N[C@@H](CC(N)=O)C(=O)N[C@@H](C)C(=O)N1CCC[C@H]1C(=O)N[C@H](C(=O)N[C@@H](CO)C(=O)N[C@H](C(=O)N1CCC[C@H]1C(=O)N[C@@H](CCC(N)=O)C(N)=O)[C@@H](C)CC)C(C)C [BMEC-NAP0504, nHex-OCO-NAPVSIPQ-NH2] |
| 11.54 | 99.42 |  | H-NAPVSLPQ-OH [BMEC-NAP0606, H-NAPVSLPQ-OH] |
| 49.86 | 98.36 |  | CCCCC(=O)N[C@@H](CC(N)=O)C(=O)N[C@@H](C)C(=O)N1CCC[C@H]1C(=O)N[C@H](C(=O)N[C@@H](CO)C(=O)N[C@H](C(=O)N1CCC[C@H]1C(=O)N[C@@H](CCC(N)=O)C(=O)O)[C@@H](C)CC)C(C)C [BMEC-NAP0105, C4H9CO-NAPVSIPQ-OH] |
| 97.75 | 130.04 |  | CCCCCCCCCCCCOC(=O)N[C@@H](CC(N)=O)C(=O)N[C@@H](C)C(=O)N1CCC[C@H]1C(=O)N[C@H](C(=O)N[C@@H](CO)C(=O)N[C@H](C(=O)N1CCC[C@H]1C(=O)N[C@@H](CCC(N)=O)C(=O)O)[C@@H](C)CC)C(C)C [BMEC-NAP0406, nDod-OCO-NAPVSIPQ-OH] |
| 23.89 | 103.83 |  | H-NAPISIPQ-OH [BMEC-NAP0604, H-NAPISIPQ-OH] |
| 94.19 | 98.80 |  | CC[C@H](C)[C@H](NC(=O)[C@H](COP(=O)(O)O)NC(=O)[C@@H](NC(=O)[C@@H]1CCCN1C(=O)[C@H](C)NC(=O)[C@@H](N)CC(N)=O)C(C)C)C(=O)N1CCC[C@H]1C(=O)N[C@@H](CCC(N)=O)C(=O)O [BMEC-NAP9902, NH2-NAPVS(OPO3H2)IPQ-OH] |
| 24.21 | 98.74 |  | CCCCCCCCC(=O)N[C@@H](CC(N)=O)C(=O)N[C@@H](C)C(=O)N1CCC[C@H]1C(=O)N[C@H](C(=O)N[C@@H](CO)C(=O)N[C@H](C(=O)N1CCC[C@H]1C(=O)N[C@@H](CCC(N)=O)C(=O)O)[C@@H](C)CC)C(C)C [BMEC-NAP0107, C8H17CO-NAPVSIPQ-OH] |
| 88.79 | 95.73 |  | CC[C@H](C)[C@H](NC(=O)[C@H](CO)NC(=O)[C@@H](NC(=O)[C@@H]1CCCN1C(=O)[C@H](C)NC(=O)[C@H](CC(N)=O)NC(=O)c1ccc(-c2ccccc2)cc1)C(C)C)C(=O)N1CCC[C@H]1C(=O)N[C@@H](CCC(N)=O)C(=O)O [BMEC-NAP0703, 4-Phenylbenzoyl-NAPVSIPQ-OH] |
| 81.63 |  | 0.77 | CC[C@H](C)[C@H](NC(=O)[C@H](CO)NC(=O)[C@@H](NC(=O)[C@@H]1CCCN1C(=O)[C@H](C)NC(=O)[C@H](CC(N)=O)NC(=O)c1ccc2c(c1)C(=O)OC21c2ccc(O)cc2Oc2cc(O)ccc21)C(C)C)C(=O)N1CCC[C@H]1C(=O)N[C@@H](CCC(N)=O)C(=O)O [BMEC-NAP9901, 5(6)FAM-NAPVSIPQ-OH] |
| 17.11 | 99.66 |  | CCCCCCCCOC(=O)N[C@@H](CC(N)=O)C(=O)N[C@@H](C)C(=O)N1CCC[C@H]1C(=O)N[C@H](C(=O)N[C@@H](CO)C(=O)N[C@H](C(=O)N1CCC[C@H]1C(=O)N[C@@H](CCC(N)=O)C(=O)O)[C@@H](C)CC)C(C)C [BMEC-NAP0405, nOct-OCO-NAPVSIPQ-OH] |
|  |  | 0.07 | H-NAPVSIPAQ-OH [BMEC-NAP0601, H-NAPVSIPAQ-OH] |
